This is an account of results in PubChem BioAssay AID624491 (Broad Institute, 2012).

For the assay, the system named is D54 ERlucT glycosylation luciferase reporter, luminescence, 24 h. The assay is described as follows: N-linked glycosylation inhibitors, luciferase reporter, dose response, D54 ERlucT cells, luminescence, cherry-picks (AID 624491).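 Further: signal gain reflects blocked N-linked glycosylation of a luciferase reporter; actives raise luciferase signal so AC26 marks activators of the reporter.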 For orientation: In a reporter assay the amount or activity of a reporter protein is the signal.

Activity calls are given as the source filed them.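 How the source made its calls: active means fitted curve crossing a set activation limit at or below the highest valid dose tested; inconclusive means flat fit at 30 to 70% activation, or poor fit; inactive means the rest, including signal decreases.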 Where only a bound is given, the exact number is not on record here.

As for `COCCOC(=O)c1[nH]c2c(c1C)C(=O)CC(c1cccs1)C2` (stereo not given), the AC26 was 1380 nM.
Next, `NC(=O)CC(NC(=O)c1ccc(Br)cc1)c1ccc(N2CCCCCC2)c([N+](=O)[O-])c1` (stereo not given): 1410 nM; `O=C(NCCc1ccccc1)c1cc(-c2ccco2)on1`: 3780 nM; `COc1cccc(/C=N/NC(=O)c2cc3c(OC)c(OC)ccc3[nH]2)c1OC`: 5850 nM.
With `COc1cc(/C=N/Nc2nc3c(c(=O)n(C)c(=O)n3C)n2Cc2ccccc2)ccc1OC(=O)c1ccco1`, the AC26 was 10500 nM.
For the compound `CC1=CC(C)[C@H](/C=N/n2c(=O)[nH]c3c([nH]c4ccc(Br)cc43)c2=O)C(C)C1` (stereo not given in full), the AC26 was 3780 nM.
On to `O=C1CCNc2cc3ccccc3cc21`, for which the AC26 was 32.5 nM.
To `Cc1ccc(NC(=O)c2ccc(Cl)cc2[N+](=O)[O-])nc1` belongs 1080 nM.
Take `COc1cc2c(cc1OC)C(c1cccs1)N(C(=S)NC(C)C)CC2` (stereo not given): the AC26 is 252 nM.
To `CCN(CC)CCOc1ccc2c(c1)C(=NNC(=O)c1ccccn1)c1cc(OCCN(CC)CC)ccc1-2` belongs 530 nM; to `Cc1ccccc1OCC(O)CN1CCN(CCN2C(=O)c3cccc4cccc(c34)C2=O)CC1` (stereo not given), 13500 nM; to `COc1ccc2c(c1)OC[C@H]1[C@H]2N2C(=O)c3ccc(C)cc3NC(=O)[C@@]2(C)[C@H]1c1ccccc1`, 926 nM.
For the compound `Cn1nc(-c2ccccc2)c(CSc2ccccc2Cl)c1Cl`, the AC26 is 6120 nM.
As for `Cc1cccc(CCNC(=O)CCCOc2cc(=O)n(C)c3ccccc23)c1`, the AC26 is 4450 nM.
Next, `O=C(c1cn(Cc2ccccc2)nc1-c1ccccc1)N1CCN(c2ccccn2)CC1`: 999 nM; `COc1ccc(NC(=O)c2cc(S(=O)(=O)N(C)C)ccc2N2CCCC2)cc1Cl`: 4800 nM; `CCOC(=O)c1[nH]c(C)c(C(=O)Nc2ccc(C)cc2C)c1C`: 494 nM.
Turning to `CCc1nn2c(NCCCO)cc(C)nc2c1-c1ccc(F)cc1`, the AC26 is 1630 nM.
In the case of `COc1nc(=O)n(C2C=CC(=O)O2)cc1F` (stereo not given), the AC26 was 3200 nM.
Next, `COc1cc2c(C#CCCO)c(-c3ccsc3)oc(=O)c2cc1OC`: 226 nM.
To `COc1ccc2c(c1)[C@H]1[C@H](CO2)[C@H](c2ccccc2)[C@]2(C)C(=O)Nc3cc(F)c(F)cc3C(=O)N12` belongs 544 nM.
To `Cc1ccc2c(c1)cc(CN(C(=O)N1CCOCC1)C1CCCC1)c1nnnn12` belongs 4120 nM.
Take `CCN(CC)CCNc1ccc(C)c2sc3ccc(O)cc3c(=O)c12`: the AC26 is 7.74 nM.
To `COc1ccc2nc(SCC(=O)NC3CCCC3)c(C)cc2c1` belongs 10200 nM.
To `CC12CC[C@H]3[C@@H](CCC4(O)C[C@H](O)CCC34/C=N/NC(=O)c3ccccc3[N+](=O)[O-])C1(O)CCC2C1=CC(=O)OC1` (stereo not given in full) belongs 4280 nM; to `Cc1cccc(N2CCN(C(=O)c3ccncc3)CC2)c1C`, 11400 nM.
To `CC(=O)c1ccc(N2CCN(C(=O)c3cccc(Oc4ccccc4)c3)CC2)cc1` belongs 1140 nM; to `CCCCCCn1c(=O)n2n(c1=O)[C@@H]1CN(S(=O)(=O)c3ccc(C)cc3)C[C@]1(O)[C@@H](OC(=O)NCc1ccccc1)C2`, 763 nM.
`Oc1cc(NCc2ccc(Cl)cc2)cc2cccnc12`: the AC26 was 6410 nM.
Regarding `C[C@@]12C(=O)Nc3cc(Cl)ccc3C(=O)N1[C@H]1c3cc(Br)ccc3OC[C@@H]1[C@@H]2c1ccccc1`, the AC26 was 961 nM.
Next, `CCCCNC(=O)c1cc(-c2ccc(F)cc2)on1`: 3450 nM; `COc1cc(-c2nc3ccc(N4CCN(C)CC4)cc3[nH]2)cc(OC)c1OC`: 535 nM; `Cc1ccc(COc2cccc(/C=N/NC(=O)c3nnn(-c4nonc4N)c3C)c2)cc1`: 1160 nM.
As for `CC1(C(=O)NCc2ccc(F)c(F)c2)Cc2c(-c3ccc4c(c3)OCO4)ccnc2O1` (stereo not given), the AC26 is 6730 nM.
To `CCOC(=O)C(C)Oc1cccc2c(=O)n(CC(=O)NCc3ccco3)ccc12` (stereo not given) belongs 1380 nM.
In the case of `COc1ccc(CC(=O)N(Cc2ccccc2)c2ccc(C)cc2)cc1S(=O)(=O)N1CCOCC1`, the AC26 was 1160 nM.
On to `Cc1ccc2nsnc2c1NC(=O)c1ccc(-c2cc(Cl)ccc2Cl)o1`, for which the AC26 was 846 nM.
Next, `COc1ccccc1N1CC(O)=C(c2nc3ccccc3c(=O)[nH]2)C1=N`: 1320 nM; `CN(C)CCNC(=O)c1cccc2nc3c(ccc4ccccc43)nc12`: 719 nM.
With `COc1ccccc1OCC(=O)N/N=C/C=C/c1ccc([N+](=O)[O-])o1`, the AC26 is 432 nM.
Next, `COc1ccc([C@H]2CC(=O)C=C(c3c(OC)cccc3OC)C2)cc1`: 3260 nM.
Next, `COCCOC(=O)c1[nH]c2c(c1C)C(=O)CC(c1ccco1)C2` (stereo not given): 3540 nM; `C=CCN(CC=C)S(=O)(=O)c1ccc(C(=O)Nc2nc3c(s2)CCc2ccccc2-3)cc1`: 6790 nM.
For `O=C(N/N=C/c1c(-c2ccccc2)[nH]c2ccccc12)c1cccnc1`, the AC26 was 117 nM.
As to `O=C(N=Nc1c(O)[nH]c2ccc(Br)cc12)c1cc(-c2cccs2)nc2ccccc12`, the AC26 is 4850 nM.
`CCOc1ccccc1N1CCN(C(=O)c2cc3ccccc3cc2OC)CC1`: the AC26 is 3440 nM.
Next, `O=C(N/N=C/c1ccco1)c1ccccc1OCc1ccccc1Cl`: 1010 nM.
To `O=C1c2ccccc2C(=O)N1Cc1cnc(N2CCN(c3ccccc3)CC2)s1` belongs 7870 nM.
To `COc1ccc2[nH]c(C(=O)N/N=C/c3ccccc3OC)cc2c1` belongs 1010 nM; to `CCC(c1nc2ccccc2c(=O)n1-c1nc2ccccc2s1)N1C(=O)c2ccccc2C1=O` (stereo not given), 1030 nM.
In the case of `O=C(NCCCn1ccnc1)c1cc(-c2ccccc2)on1`, the AC26 is 3170 nM.
`COc1cc(Nc2nc3c(N)cc(C(F)(F)F)cc3nc2-c2ccccc2)cc(OC)c1OC`: the AC26 is 868 nM.
Consider `CCN(CC(=O)Nc1ccccc1-c1ccccc1)Cc1nc2ccccc2c(=O)[nH]1`, for which the AC26 is 1470 nM.
On to `NC(N)=N/N=C/c1ccc2cccc(OCc3ccccc3)c2n1`, for which the AC26 was 4150 nM.
On to `Cc1ccc(C)c(NC(=S)NC(NC(=O)Cc2cccc3ccccc23)C(Cl)(Cl)Cl)c1` (stereo not given), for which the AC26 is 1270 nM.
To `C=CCOc1ccc(/C=C2\SC(N3CCCCC3)=NC2=O)cc1` belongs 5420 nM; to `Cc1ccc2c(C)c3ccc4ccccc4c3c[n+]2c1`, 667 nM; to `Cc1ccc(OC(=O)CCC(=O)Oc2ccc(C)cc2C)c(C)c1`, > 19500 nM (inactive).
To `COc1cc(-n2c(N)c(C(=O)NCc3ccco3)c3nc4ccccc4nc32)cc(OC)c1OC` belongs 2090 nM; to `Cc1ccc(-n2nc(C)c(/C=N/NC(=O)c3cccs3)c2Cl)cc1`, 4230 nM; to `Cc1cc2c(cc(C(=O)OCC(=O)NCc3cccs3)n2C(C)C)o1`, 1740 nM.
Next, `COc1cc(NC(C(=O)Nc2cccc(C(C)=O)c2)c2ccccc2)cc(OC)c1OC` (stereo not given): 890 nM; `Oc1ccc(Nc2nc(N3CCCC3)c3ccccc3n2)cc1`: 335 nM.
On to `COc1cc(-c2[nH]ncc2CN2CCSCC2)cc(OC)c1OC`, for which the AC26 is 4790 nM.
With `COc1cc(-c2noc(C)c2/C=C/c2ccc(N)cc2)cc(OC)c1OC`, the AC26 is 467 nM.
For `O=C(/C=C/Sc1ccccc1)c1ccccc1`, the AC26 was 2150 nM.
For the compound `Cn1c(=O)cc(OCCCC(=O)Nc2ccc3c(c2)OCCO3)c2ccccc21`, the AC26 is 3060 nM.
To `CC1(C(=O)NCc2cccs2)Cc2c(-c3ccc4c(c3)OCO4)ccnc2O1` (stereo not given) belongs 2060 nM; to `COc1cccc(-c2cnc3c(NC(C)=O)cc(-c4cc(F)ccc4OC)cn23)c1`, 1600 nM; to `Fc1ccc(CSc2ccc3nnc(-c4cccnc4)n3n2)cc1`, 403 nM.
Next, `CCC(C)Nc1nc2ccccc2n2c(C)nnc12` (stereo not given): 1500 nM; `COc1ccc2[nH]c(C(=O)N3CCN(Cc4ccccc4)CC3)cc2c1OC`: 1130 nM.
Next, `COc1cc(Nc2c3c(nc4ccccc24)CCCC3)cc(OC)c1OC`: 581 nM; `OCCCN=c1cc(-c2ccccc2)oc2ccc(Cl)cc12`: 978 nM.
As to `Cc1ccc(-c2cc(C(=O)N3CC(C)OC(C)C3)c3ccccc3n2)o1` (stereo not given), the AC26 is 4280 nM.
Next, `COC(=O)c1cc(OC)c(OC)cc1NC(=S)NC(=O)c1ccco1`: 607 nM; `CC(=O)c1c(C)[nH]c(C(=O)Nc2nccs2)c1C`: 2200 nM; `CCCCC[C@H](O)/C=C/[C@@H]1[C@@H](C/C=C\CCCC(=O)OC)[C@@H](O)C[C@H]1O`: 10.5 nM.
To `COc1ccc(CNC(=O)c2cccc3c(-c4cccnc4)coc23)cc1OC` belongs 2690 nM.
For `COc1ccc2nc3c(cc2c1)c(NC(=O)CC(C)C)nn3CC(C)C`, the AC26 is 8100 nM.
Regarding `COc1ccc2c(c1)[C@H]1[C@H](CO2)[C@H](c2ccccc2)[C@]2(C)C(=O)Nc3ccc(F)cc3C(=O)N12`, the AC26 is 568 nM.
With `O=C(CCN1C(=O)/C(=C/c2cccs2)SC1=S)N1CCCCC1`, the AC26 is 1220 nM.
To `CC(C)Oc1ccc(C(=O)/C=C2/C(=O)Nc3ccccc32)cc1` belongs 3230 nM.
To `COC(=O)c1ccccc1NC(=O)Cn1nnc(-c2ccc(OC)cc2)n1` belongs > 19500 nM (inactive); to `COc1ccc(/C=N/NC(=O)c2c(C)nc3ccc(Br)cn23)cc1OC`, 2520 nM.
Turning to `Cc1ccsc1CNc1ncnc2ccc(-c3c(C)noc3C)cc12`, the AC26 is 102 nM.
Turning to `COC(=O)/C=C1\C(=O)N(c2nc3ccccc3s2)C(=S)N1c1ccc(F)cc1`, the AC26 is 2300 nM.
For the compound `Cc1cc(C)nc(SC2=CS(=O)(=O)c3ccccc32)n1`, the AC26 was 4210 nM.
As to `COc1ccc(NC2=C(C)C(=O)CC2)cc1`, the AC26 was 2940 nM.
Next, `COc1ccc(C2C3=C(COC3=O)Oc3cc4c(cc32)OCO4)cc1OC` (stereo not given): 1780 nM; `Cc1cccc2cc(/C=C/C(=O)c3ccco3)c(Cl)nc12`: 3830 nM.
Regarding `Cc1cc(C)nc(/N=C(\N)Nc2ccc(OCCC(C)C)cc2)n1`, the AC26 was 776 nM.
`COc1cc(-c2noc(C)c2-c2ccc(N(C)C)nc2)cc(OC)c1OC`: the AC26 is 112 nM.
To `Cc1onc(C(=O)Nc2cccc(C(F)(F)F)c2)c1[N+](=O)[O-]` belongs 2720 nM.
Next, `COc1cccc2nc3c(C(=O)NCCN(C)C)cccc3cc12`: 164 nM.
